Structures can show the parent of a compound that is named as a salt.
Tests used:
NF-κB = assay: Single-point screen: NFκB activation (SEAP reporter); assay type: cell-based, human; details: A549-Dual cells, compound 50 μM pre-treatment, NP-1+mRNA 20 ng/well + IFN; for fold induction at 50 µM: Homo sapiens, 24 h, read-out: fold NFkB over IFN
Source text: (§1) The cells produce secreted embryonic alkaline phosphatase (SEAP), under the control of the interferon beta […] minimal promoter fused to five NF-κB binding sites. The cells also secrete lucia luciferase under the control of IFIT2 promoter.

A549-Dual cells [1] = assay: Single-point kinase inhibitor library screen: nLuc expression from NP-1+mRNA-nLuc in IFN-treated cells; assay type: cell-based, human; details: compound 50 μM pre-treatment, NP-1+mRNA 20 ng/well + IFN; for fold induction at 50 µM: Homo sapiens, read-out: fold nLuc over RNA + IFN
Procedure: as §1
To measure protein expression from mRNA, which is the primary readout for compound down selection, mRNA encoding a secreted version of nanoluciferase (mRNA-nLuc) was used. Protein expression was measured via a luminometer using standard techniques.
As additional criterion, expression in compound treated cells was compared relative to mRNA-transfected cells without IFN (“RNA only”) (data not shown).
A library of small molecule kinase inhibitors was screened for the ability to enhance expression of mRNA-encoded genes when co-delivered with mRNA.

IFIT2 = assay: Single-point screen: IFIT2 activation (Lucia luciferase, QUANTI-Luc); assay type: cell-based, human; details: A549-Dual cells, compound 50 μM pre-treatment, NP-1+mRNA 20 ng/well + IFN; for fold induction at 50 µM: Homo sapiens, 24 h, read-out: fold IFIT over IFN
Source text: as §1

A549-Dual cells [2] = assay: Single-point screen: cell viability by CellTiter-Glo; details: A549-Dual cells incubated overnight with compound at 50 μM, then NP-1+mRNA 20 ng/well + IFN 1:50
Procedure: Finally, cell lysates were assayed with the CellTiter-GLO® assay (Promega) to obtain a luminescent-based measure of cell viability. In summary, the readouts from the high throughput screen included the primary measure of nLuc protein expression and three secondary readouts: IFIT, NF-κB and cell viability.
For each assay, A549-dual cells were plated at a seeding density of about 5×10^4 cells per well. Cells were incubated overnight with compounds at 50 microMolar (μM) in 1% v/v dimethyl sulfoxide (DMSO). For control wells, 1% DMSO was added to each well. After about 24 hours, the culture medium was removed, and cells were transfected with NP-1+mRNA at 20 ng/mRNA/well in Opti-MEM® media (Thermofisher). Interferon (IFN) was diluted to 1:50 in all test wells except for the RNA only wells and media only wells. Anti-IFN was diluted 1:1000 in “RNA+anti-IFN+IFN” wells. Cells were incubated for 4 hours, and culture medium was added to the Opti-MEM® medium. After 24 hours, assay supernatants were collected and analyzed for nLuc expression, IFIT2 (qLuc), and NFκB (qBLUE-SEAP™, InvivoGen) activation. Cells were then lysed, and cell viability was determined by CellTiter-Glo® (Promega) assay.

Row | Structure (SMILES) | fold induction at 50 µM (NF-κB) | fold induction at 50 µM (A549-Dual cells [1]) | fold induction at 50 µM (IFIT2) | % viability (A549-Dual cells [2]) [%] | fold NFkB over IFN (NF-κB) [fold] | fold nLuc over RNA + IFN (A549-Dual cells [1]) [fold] | fold IFIT over IFN (IFIT2) [fold]
1 | CN1CC[C@@H](c2c(O)cc(O)c3c(=O)cc(-c4ccc(C(F)(F)F)cc4Cl)oc23)[C@@H]1CO [Voruciclib (hydrochloride), 2-[2-chloro-4-(trifluoromethyl)phenyl]-5,7-dihydroxy-8-[(2R,3S)-2-(hydroxymethyl)-1-methylpyrrolidin-3-yl]chromen-4-one] | 0.63 | 274 | 0.8 |  |  |  | 
2 | C[C@@]1(O)CCC[C@H]1n1c(=O)c(C(F)F)cc2cnc(NC3CCN(S(C)(=O)=O)CC3)nc21 [PF-06873600, 6-(difluoromethyl)-8-[(1R,2R)-2-hydroxy-2-methylcyclopentyl]-2-[(1-methylsulfonylpiperidin-4-yl)amino]pyrido[2,3-d]pyrimidin-7-one] | 0.83 | 120 | 1.08 | 55 |  |  | 
3 | Cn1nc(C(C)(C)C)cc1NC(=O)Nc1ccc(Oc2ccncc2)cc1 [MAPK13-IN-1, 1-(5-tert-buty-2-methylpyrazol-3-yl)-3-(4-pyridin-4-yloxyphenyl)urea] |  |  |  | 59 | 0.66 | 207.89 | 1.93
4 | CC[C@H](CO)Nc1nc(NCc2ccccc2)c2ncn(C(C)C)c2n1 [Seliciclib, (2R)-2-[[6-(benzylamino)-9-propan-2-ylpurin-2-yl]amino]butan-1-ol] | 0.55 | 118 | 1.32 | 45 |  |  | 
5 | C[C@H](Nc1cc(-c2cnn(C)c2)cc(Nc2cnccn2)n1)c1ccc(F)cc1.Cl [Ilginatinib hydrochloride, 6-N-[(1S)-1-(4-fluorophenyl)ethyl]-4-(1-methylpyrazol-4-yl)-2-N-pyrazin-2-ylpyridine-2,6-diamine; hydrochloride] | 1.39 |  | 3.17 |  |  | 484.10 | 
6 | Cc1nc2c(NCc3cccc(S(C)(=O)=O)c3)nccn2c1-c1ccc(O)c(F)c1 [BF738735, 2-fluoro-4-[2-methyl-8-[(3-methylsulfonylphenyl)methylamino]imidazo[1,2-a]pyrazin-3-yl]phenol] | 0.62 | 239 | 0.37 | 93 |  |  | 
7 | CN(c1ccc(NC(=O)Nc2ccc(OC(F)(F)F)cc2)cc1)c1ccnc(Nc2cccc(S(N)(=O)=O)c2)n1 [GW806742X (hydrochloride), 1-[4-[methyl-[2-(3-sulfamoylanilino)pyrimidin-4-yl]amino]phenyl]-3-[4-(trifluoromethoxy)phenyl]urea] | 0.91 | 842 | 3.93 | 41 |  |  | 
8 | COc1ccc(-c2c[nH]c3nccc(-c4ccsc4)c23)c(OC)c1 [ARN-3236, 3-(2,4-dimethoxyphenyl)-4-thiophen-3-yl-1-pyrrolo[2,3-b]pyridine] |  |  |  | 33 | 0.41 | 322.60 | 1.61
9 | O=C1Nc2ccccc2/C1=C/c1ccccn1 [GSK-3 inhibitor 1] |  |  |  | 90 | 1.00 | 225.93 | 0.65
10 | C[C@H](Nc1cc(-c2cnn(C)c2)cc(Nc2cnccn2)n1)c1ccc(F)cc1 [Ilginatinib, 6-N-[(1S)-1-(4-fluorophenyl)ethyl]-4-(1-methylpyrazol-4-yl)-2-N-pyrazin-2-ylpyridine-2,6-diamine] | 1.12 |  | 1.89 |  |  | 115.95 | 
11 | COCCOc1ccc(-c2cn(-c3ccccc3)c3nc[nH]c(=O)c23)cc1 [DMX-5804, 5-[4-(2-methoxyethoxy)phenyl]-7-phenyl-3H-pyrrolo[2,3-d]pyrimidin-4-one] | 1.35 | 267 | 0.4 | 92 |  |  | 
12 | Cl.O=C(NC1CCNCC1)c1n[nH]cc1NC(=O)c1c(Cl)cccc1Cl [AT7519 (Hydrochloride), 4-[(2,6-dichlorobenzoyl)amino]-N-piperidin-4-yl-1H-pyrazole-5-carboxamide; hydrochloride] | 0.43 | 123 | 0.88 | 42 |  |  | 
13 | Cc1[nH]ncc1-c1cc2nc([C@H]3CC4CCN3CC4)[nH]c(=O)c2s1 [(R)-Simurosertib] |  |  |  | 86 | 1.33 | 200.44 | 1.84
14 | Oc1cccc(Nc2ncc(F)c(Nc3cccc(O)c3)n2)c1 [Compound R112, 3-[[5-fluoro-2-(3-hydroxyanilino)pyrimidin-4-yl]amino]phenol] | 1.16 | 521 | 1.33 | 76 |  |  | 
15 | COc1cc(Nc2ncc3ccn(-c4cccc(CCC#N)c4)c3n2)cc(OC)c1OC [Casein Kinase II Inhibitor IV, 3-[3-[2-(3,4,5-trimethoxyanilino)pyrrolo[2,3-d]pyrimidin-7-yl]phenyl]propanenitrile] | 0.46 | 126 | 0.79 | 18 |  |  | 
16 | COc1ccc(CCNCc2ccc(OCc3ccc(Cl)nc3)c(OC)c2)cc1OC [SBE13 (Hydrochloride)] |  |  |  | 105 | 0.73 | 179.07 | 0.32
17 | Cc1ncc(-c2ccnc(Nc3ccc(S(C)(=O)=O)cc3)n2)n1C(C)C [AZD-5438, 4-(1-isopropyl-2-methyl-1H-imidazol-5-yl)-N-(4-(methylsulfonyl)phenyl)pyrimidin-2-amine] | 0.38 | 353 | 2.39 | 46 |  |  | 
18 | C[C@@H](Oc1ccc2[nH]nc(/C=C/c3cnn(CCO)c3)c2c1)c1c(Cl)cncc1Cl [LY2874455, 2-[4-[(E)-2-[5-[(1R)-1-(3,5-dichloropyridin-4-yl)ethoxy]-1H-indazol-3-yl]ethenyl]pyrazol-1-yl]ethanol] | 0.3 | 150 | 0.09 | 58 |  |  | 
19 | Cn1nccc1Nc1nccc(-c2ccn([C@H](CO)c3ccc(Cl)c(F)c3)c(=O)c2)n1 [Ravoxertinib hydrochloride, 1-[(1S)-1-(4-chloro-3-fluorophenyl)-2-hydroxyethyl]-4-[2-[(2-methylpyrazol-3-yl)amino]pyrimidin-4-yl]pyridin-2-one] | 1.17 | 162 | 0.24 | 96 |  |  | 
20 | CN1CC[C@H](c2c(O)cc(O)c3c(=O)cc(-c4ccc(C(F)(F)F)cc4Cl)oc23)[C@H]1CO [(2S,3R)-Voruciclib (hydrochloride), 2-[2-chloro-4-(trifluoromethyl)phenyl]-5,7-dihydroxy-8-[(2S,3R)-2-(hydroxymethyl)-1-methylpyrrolidin-3-yl]chromen-4-one; hydrochloride] | 0.26 | 113 | 1.09 |  |  |  | 
21 | CCN1CCN(Cc2ccc(NC(=O)Nc3ccc(Oc4cc(NC)ncn4)cc3)cc2C(F)(F)F)CC1 [AST 487, 1-[4-[(4-ethylpiperazin-1-yl)methyl]-3-(trifluoromethyl)phenyl]-3-[4-[6-(methylamino)pyrimidin-4-yl]oxyphenyl]urea] | 0.14 | 183 | 0.19 | 32 |  |  | 
22 | O=C1NCCSc2c1sc1ccc(O)cc21 [kb NB 142-70, 9-hydroxy-3,4-dihydro-2H-[1]benzothiolo[2,3-f][1,4]thiazepin-5-one] | 0.61 | 187 | 2.31 | 52 |  |  | 
23 | Cc1cnc(-c2cnc(NCCNc3ccc(C#N)cn3)nc2-c2ccc(Cl)cc2Cl)[nH]1 [CHIR-99021 (monohydrochloride), 6-[2-[[4-(2,4-dichlorophenyl)-5-(5-methyl-1H-imidazol-2-yl)pyrimidin-2-yl]amino]ethylamino]pyridine-3-carbonitrile] | 0.71 | 116 | 0.35 |  |  |  | 
24 | Cc1cc(Nc2cc(Cl)nc(Oc3ccc([N+](=O)[O-])cc3)n2)n[nH]1 [Autophinib, 6-chloro-NV-(5-methyl-1H-pyrazol-3-yl)-2-(4-nitrophenoxy)pyrindin-4-amine] |  |  |  | 49 | 0.78 | 128.89 | 1.09
25 | Cc1cc(F)c(C(=O)Nc2cccc(-c3nncn3C(C)C)n2)cc1-n1cnc(C2CC2)c1 [Selonsertib, 5-(4-cycloproplirnidazol-1-yl)-2-fluoro-4-methyl-N-[6-(4-propan-2-yl-1,2,4-triazol-3-yl)pyridin-2-yl]benzamide] | 0.9 | 112 | 1.43 |  |  |  | 
